# According to ChEMBL document CHEMBL4665709, “Rational Avoidance of Protease Cleavage Sites and Symmetrical End-Tagging Significantly Enhances the Stability and Therapeutic Potential of Antimicrobial Peptides” (J Med Chem, 2020):
# Calls of active or inactive are those of the source. The calls are words filed in the database; no cut-off is given here. Where a SMILES comes first, the peptide text is derived from it.
# How the values were obtained:
# [1] = Therapeutic index, ratio of MHC for human RBC to geometric mean of peptide MIC for Streptococcus agalactiae H92; format: toxicity; conditions: human red blood cells (RBC), read-out: TI
# [2] = Therapeutic index, ratio of MHC for human RBC to geometric mean of peptide MIC for Staphylococcus epidermidis ATCC 12228; format: toxicity; conditions: human red blood cells (RBC), read-out: TI
# [3] = Therapeutic index, ratio of MHC for human RBC to geometric mean of peptide MIC for Staphylococcus aureus 11011; format: toxicity; conditions: human red blood cells (RBC), read-out: TI
# [4] = Therapeutic index, ratio of MHC for human RBC to geometric mean of peptide MIC for Salmonella typhimurium 7731; format: toxicity; conditions: human red blood cells (RBC), read-out: TI
# [5] = Therapeutic index, ratio of MHC for human RBC to geometric mean of peptide MIC for Escherichia coli ATCC 25922; format: toxicity; conditions: human red blood cells (RBC), read-out: TI
# Cell membrane [6] = assay: Disruption of membrane integrity in Escherichia coli ATCC 25922 assessed as induction of membrane rupture after 1 hr by PI-staining based flow cytometry analysis; format: subcellular
# Staphylococcus aureus [7] = assay: Antibacterial activity against Staphylococcus aureus ATCC 29213 after 18 to 24 hrs by CLSI-based broth microdilution method; format: functional; conditions: time hrs 18-24
# Staphylococcus aureus [8] = assay: Antibacterial activity against Staphylococcus aureus 11011 after 18 to 24 hrs by CLSI-based broth microdilution method; format: functional; conditions: time hrs 18-24
# Escherichia coli [9] = assay: Antibacterial activity against Escherichia coli ATCC 25922 after 18 to 24 hrs by CLSI-based broth microdilution method; format: functional; conditions: time hrs 18-24
# [10] = Antibacterial activity against Salmonella pullorum 7913 after 18 to 24 hrs by CLSI-based broth microdilution method; format: functional, Salmonella enterica subsp. enterica serovar Pullorum; conditions: Salmonella enterica, time hrs 18-24
# Enterococcus faecalis = assay: Antibacterial activity against Enterococcus faecalis ATCC 29212 after 18 to 24 hrs by CLSI-based broth microdilution method; format: functional; conditions: time hrs 18-24
# Streptococcus agalactiae = assay: Antibacterial activity against Streptococcus agalactiae H92 after 18 to 24 hrs by CLSI-based broth microdilution method; format: functional; conditions: time hrs 18-24
# [11] = Hemolytic activity in human RBC assessed as hemolysis at 1 to 128 uM relative to control; format: ADME, cell-based, Erythrocyte; conditions: human red blood cells (RBC), dose 1-128 µM, read-out: Activity
# [12] = Cytotoxicity against mouse RAW264.7 cells assessed as cell viability at 128 uM by MTT assay relative to control; format: cell-based; conditions: read-out: Activity
# [13] = Cytotoxicity against HEK-293T cells assessed as cell viability at 128 uM by MTT assay relative to control; format: cell-based; conditions: human, read-out: Activity
# Escherichia coli [14] = assay: Antibacterial activity against Escherichia coli ATCC 25922 after 18 to 24 hrs in presence of 6 uM NH4+ by CLSI-based broth microdilution method; format: functional; conditions: time hrs 18-24
# Escherichia coli [15] = assay: Antibacterial activity against Escherichia coli ATCC 25922 after 18 to 24 hrs in presence of 6 uM Fe3+ by CLSI-based broth microdilution method; format: functional; conditions: time hrs 18-24
# Escherichia coli [16] = assay: Antibacterial activity against Escherichia coli ATCC 25922 after 18 to 24 hrs in presence of 25% human serum by CLSI-based broth microdilution method; format: functional; conditions: time hrs 18-24
# Escherichia coli [17] = assay: Antibacterial activity against Escherichia coli ATCC 25922 after 18 to 24 hrs in presence of 50% human serum by CLSI-based broth microdilution method; format: functional; conditions: time hrs 18-24
# Escherichia coli [18] = assay: Antibacterial activity against Escherichia coli ATCC 25922 after 18 to 24 hrs in presence of 100% human serum by CLSI-based broth microdilution method; format: functional; conditions: time hrs 18-24
# Staphylococcus aureus [19] = assay: Antibacterial activity against Staphylococcus aureus ATCC 29213 after 18 to 24 hrs in presence of 1 mM Mg2+ by CLSI-based broth microdilution method; format: functional; conditions: time hrs 18-24
# Staphylococcus aureus [20] = assay: Antibacterial activity against Staphylococcus aureus ATCC 29213 after 18 to 24 hrs in presence of 8 uM Zn2+ by CLSI-based broth microdilution method; format: functional; conditions: time hrs 18-24
# Staphylococcus aureus [21] = assay: Antibacterial activity against Staphylococcus aureus ATCC 29213 after 18 to 24 hrs in presence of 6 uM NH4+ by CLSI-based broth microdilution method; format: functional; conditions: time hrs 18-24
# Staphylococcus aureus [22] = assay: Antibacterial activity against Staphylococcus aureus ATCC 29213 after 18 to 24 hrs in presence of 100% human serum by CLSI-based broth microdilution method; format: functional; conditions: time hrs 18-24
# [23] = Stability of compound at 100 degreeC after 30 to 90 mins; format: physicochemical; conditions: time 30-90 min
# Escherichia coli [24] = assay: Antibacterial activity against Escherichia coli ATCC 25922 measured after 18 to 24 hrs in presence of trypsin by CLSI-based broth microdilution method; format: functional, organism-based; conditions: time hrs 18-24
# Staphylococcus aureus [25] = assay: Antibacterial activity against Staphylococcus aureus 29213 with 0.0625-2 mg/mL proteinase K for 1 hr followed by test compound addition measured after 4 to 8 hrs by CLSI-based broth microdilution method; format: functional, organism-based; conditions: time hrs 4-8
# [26] = Toxicity in C57BL/6 mouse assessed as effect on creatinine level at 10 mg/kg, ip measured after 5 days; format: organism-based; conditions: in vivo, 120 h, time 5 day
# [27] = Toxicity in C57BL/6 mouse assessed as effect on blood urea nitrogen level at 10 mg/kg, ip measured after 5 days; format: organism-based; conditions: in vivo, 120 h, time 5 day
# [28] = Toxicity in C57BL/6 mouse assessed as effect on blood urea nitrogen level at 20 mg/kg, ip measured after 5 days; format: organism-based; conditions: in vivo, 120 h, time 5 day
# [29] = Toxicity in C57BL/6 mouse assessed as effect on aspartate aminotransferase level at 20 mg/kg, ip measured after 5 days; format: organism-based; conditions: in vivo, 120 h, time 5 day
# [30] = Toxicity in C57BL/6 mouse assessed as effect on aspartate aminotransferase level at 10 mg/kg, ip measured after 5 days; format: organism-based; conditions: in vivo, 120 h, time 5 day
# Escherichia coli [31] = assay: Antibacterial activity against Escherichia coli ATCC 25922 infected in C57BL/6 mouse assessed as reduction in inflammatory cell infiltration in lung at 10 mg/kg, ip measured after 11 hrs by hematoxylin and eosin staining based assay; format: functional, organism-based
# Escherichia coli [32] = assay: Antibacterial activity against Escherichia coli ATCC 25922 infected in C57BL/6 mouse assessed as reduction in bleeding in spleen at 10 mg/kg, ip measured after 11 hrs by hematoxylin and eosin staining based assay; format: functional, organism-based
# [33] = Stability of compound assessed as pepsin (unknown origin)-mediated drug degradation after 8 hrs by RP-HPLC analysis; format: ADME; conditions: human
# Trypsin = Trypsin (Homo sapiens, UniProt P07477+P07478+P35030); assay: Stability of compound assessed as trypsin (unknown origin)-mediated drug degradation after 8 hrs by SDS-PAGE analysis; format: ADME, protein assay
# [34] = Stability of compound assessed as chymotrypsin (unknown origin)-mediated drug degradation after 8 hrs by SDS-PAGE analysis; format: ADME; conditions: human
# Lipopolysaccharide (LPS) = assay: Displacement of BODIPY-TR-cadaverine from Escherichia coli O111:B4 LPS after 4 hrs by fluorescence assay
# Cell membrane [35] = assay: Disruption of membrane integrity in Escherichia coli ATCC 25922 assessed as induction of membrane rupture at 2 times MIC after 1 hr by PI-staining based flow cytometry analysis relative to control
# Cell membrane [36] = assay: Induction of structural changes in membrane of Escherichia coli ATCC 25922 assessed as cytoplasmic membrane separation at 1 times MIC after 1 hr by transmission electron microscopy; format: subcellular
# Cell membrane [37] = assay: Induction of structural changes in membrane of Escherichia coli ATCC 25922 assessed as membrane rupture at 1 times MIC after 1 hr by transmission electron microscopy; format: subcellular
smiles,measurement,setting,value
CC[C@H](C)[C@H](N)C(=O)N[C@H](C(=O)N[C@H](C(=O)N[C@@H](CS)C(=O)N[C@@H](CCCNC(=N)N)C(=O)N[C@@H](CCCCN)C(=O)N1CCC[C@H]1C(=O)N[C@H](C(=O)N[C@H](C(=O)N[C@@H](CS)C(=O)N[C@@H](CCCNC(=N)N)C(=O)N[C@@H](CCCCN)C(=O)N1CCC[C@H]1C(=O)N[C@H](C(=O)N[C@H](C(=O)N[C@@H](CS)C(=O)N[C@@H](CCCNC(=N)N)C(=O)N[C@@H](CCCCN)C(=O)N1CCC[C@H]1C(=O)N[C@H](C(=O)N[C@H](C(=O)N[C@@H](CS)C(=O)N[C@@H](CCCNC(=N)N)C(=O)N[C@@H](CCCCN)C(=O)N1CCC[C@H]1C(=O)N[C@H](C(=O)N[C@H](C(=O)N[C@H](C(N)=O)[C@@H](C)CC)[C@@H](C)CC)[C@@H](C)CC)[C@@H](C)CC)[C@@H](C)CC)[C@@H](C)CC)[C@@H](C)CC)[C@@H](C)CC)[C@@H](C)CC)[C@@H](C)CC)[C@@H](C)CC (H-IIICRKPIICRKPIICRKPIICRKPIII-NH2),selectivity ratio,[1],28.5
same,selectivity ratio,[2],28.5
same,selectivity ratio,[3],28.5
same,selectivity ratio,[4],57
same,selectivity ratio,[5],57
same,Activity,Cell membrane [6],Dose-dependent effect
same,MIC,Staphylococcus aureus [7],8 µM
same,MIC,Staphylococcus aureus [8],4 µM
same,MIC,Escherichia coli [9],2 µM
same,MIC,[10],4 µM
same,MIC,Enterococcus faecalis,8 µM
same,MIC,Streptococcus agalactiae,2 µM
same,hemolysis at up to 128 µM,[11],< 5%
same,viability at 128 µM,[12],> 90%
same,viability at 128 µM,[13],> 90%
same,MIC,Escherichia coli [14],2 µM
same,MIC,Escherichia coli [15],2 µM
same,MIC,Escherichia coli [16],4 µM
same,MIC,Escherichia coli [17],4 µM
same,MIC,Escherichia coli [18],8 µM
same,MIC,Staphylococcus aureus [19],16 µM
same,MIC,Staphylococcus aureus [20],8 µM
same,MIC,Staphylococcus aureus [21],8 µM
same,MIC,Staphylococcus aureus [22],32 µM
same,Stabilty,[23],Stable
same,Activity,Escherichia coli [24],Active
same,Activity,Staphylococcus aureus [25],Active
same,Activity,[26],Non-Toxic
same,Activity,[27],Non-Toxic
same,Activity,[28],Non-Toxic
same,Activity,[29],Non-Toxic
same,Activity,[30],Non-Toxic
same,Activity,Escherichia coli [31],Active
same,Activity,Escherichia coli [32],Active
same,Stabilty,[33],Stable
same,Stabilty,Trypsin,Stable
same,Stabilty,[34],Stable
same,Activity,Lipopolysaccharide (LPS),Dose-dependent effect
same,Activity,Cell membrane [35],> 90%
same,Activity,Cell membrane [36],Active
same,Activity,Cell membrane [37],Active
